Data reported in patent US11518740B2, “Pleuromutilin (phenylthio)acetic acid ester with anti-drug resistant bacteria activity and a method of preparing the same” (SHAANXI UNIVERSITY OF SCIENCE AND TECHNOLOGY, priority 2021, dated 2022).

How the values were obtained:
Assay type in all cases: cell-based
[1] = system: multi-resistant Staphylococcus aureus 171; experiment: Paper diffusion method drug sensitivity test, MRSA-171; conditions: for Zone of inhibition: strain MRSA-171, drug sensitive paper 30 μg/tablet, 37° C., 24 h; for inhibitory effect (in words): multi-drug resistant Staphylococcus aureus 171, summary of FIGS. 1-3 and Table 1
Protocol: (§1) The antimicrobial efficacy was determined by a paper diffusion method drug sensitivity test.
(§2) Experimental strains: multi-resistant Staphylococcus aureus 171, multi-resistant Staphylococcus aureus 222, multi-resistant Staphylococcus aureus 596. The experimental strains were identified by Huashan Hospital Affiliated to Fudan University (Institute of Antibiotic of Fudan University).
(§3) Drug sensitive paper: The drug sensitive paper is a special drug sensitive paper with a diameter of 6.35 mm and a water absorption of 0.02 mL. The control drug was vancomycin (30 μg/tablet); the test drugs were pleuromutilin (phenylithio)acetic acid ester (30 μg/tablet).
(§4) Reagents: LB agar medium, LA broth medium, dichloromethane.
(§5) The experimental strains were inoculated in non-selective medium and placed in air at 37° C. for 24 h. Pick a single colony that grows well and inoculate it into broth medium, incubate at 35° C.±2° C. for 6 hours, and use LA broth medium to calibrate the concentration of the bacterial solution to 0.5 Mie turbidimetric tube (1.5×10^8 CFU/mL). A bacterial suspension is obtained.
as §5, with “([…]” for “(1.5×10^8”
(§6) LB dry powder was weighed, sterilized at 103.4 Kpa, 121.3° C. high-pressure steam for 15 min, and then placed it in a 40° C.-50° C. water bath. A sterile empty plate (inner diameter 9 cm) was placed on the surface of the ultra-clean table water table, and […] to the plate. The thickness of each plate was 3 mm to 4 mm. After the plate was cooled at room temperature, it was stored in the refrigerator at 2° C.-8° C. A sterile cotton swab was used to dip the bacterial solution and to evenly coat the surface of the LB plate 3 times. After inoculation of the bacterial suspension, the LB plate was dried at room temperature for 3 min to 5 min. Sterile forceps were used to closely attach the antibacterial drug paper to the dish. The dish was put upside down and placed in a 37° C. incubator for 24 h. The results were observed by measuring the diameter. Taking 0.5% DMSO solution as a negative control, the antibacterial activity is expressed by the diameter of the inhibition zone. The inhibition zone≥17 mm, sensitive; the inhibition zone of 15 mm-16 mm, intermediary; the inhibition zone≤14 mm, drug resistance.

[2] = system: multi-resistant Staphylococcus aureus 222; experiment: Paper diffusion method drug sensitivity test, MRSA-222; conditions: for Zone of inhibition: strain MRSA-222, drug sensitive paper 30 μg/tablet, 37° C., 24 h; for inhibitory effect (in words): multi-drug resistant Staphylococcus aureus 222, summary of FIGS. 1-3 and Table 1
Protocol: as §1, §2, §3, §4, §5
as §5, with “([…]” for “(1.5×10^8”
as §6

[3] = system: multi-resistant Staphylococcus aureus 596; experiment: Paper diffusion method drug sensitivity test, MRSA-596; conditions: for Zone of inhibition: strain MRSA-596, drug sensitive paper 30 μg/tablet, 37° C., 24 h; for inhibitory effect (in words): multi-drug resistant Staphylococcus aureus 596, summary of FIGS. 1-3 and Table 1
Protocol: as §1, §2, §3, §4, §5
as §5, with “([…]” for “(1.5×10^8”
as §6

Compound	Zone of inhibition [1] [mm]	Zone of inhibition [2] [mm]	Zone of inhibition [3] [mm]	inhibitory effect (in words) [1]	inhibitory effect (in words) [2]	inhibitory effect (in words) [3]
CN[C@H](CC(C)C)C(=O)N[C@H]1C(=O)N[C@@H](CC(N)=O)C(=O)N[C@H]2C(=O)N[C@H]3C(=O)N[C@H](C(=O)N[C@H](C(=O)O)c4cc(O)cc(O)c4-c4cc3ccc4O)[C@H](O)c3ccc(c(Cl)c3)Oc3cc2cc(c3O[C@@H]2O[C@H](CO)[C@@H](O)[C@H](O)[C@H]2O[C@H]2C[C@](C)(N)[C@H](O)[C@H](C)O2)Oc2ccc(cc2Cl)[C@H]1O [Vancomycin]	17	18	21			
O=C(O)CSc1ccccc1 [(Phenylithio)acetic acid]	0	0	0	no inhibitory effect	no inhibitory effect	no inhibitory effect
C=C[C@]1(C)C[C@@H](OC(=O)CO)[C@]2(C)[C@H](C)CC[C@]3(CCC(=O)[C@H]32)[C@@H](C)[C@@H]1O [Pleuromutilin]	0	0	0	no inhibitory effect	no inhibitory effect	no inhibitory effect
C=C[C@]1(C)CC(OC(=O)COC(=O)CSc2ccccc2)[C@]2(C)[C@H](C)CC[C@]3(CCC(=O)[C@H]32)[C@@H](C)[C@@H]1O (some centres unmarked)		15	23	strong inhibitory effects	strong inhibitory effects	strong inhibitory effects
